Results on 52 compounds are retold here after PubChem BioAssay AID1996.

≈ marks a conversion by molar mass, not a printed value.

The conditions of this data set: buffer; pH 7.4; 200.0 µM.
A word on the solubility (kinetic): it is solubility judged after dilution from a stock solution rather than from solid. For the compound `Cc1ccc(C(C[N+](=O)[O-])c2c(N)n(C)c(=O)n(C)c2=O)cc1` (configuration not stated), the solubility (kinetic) is greater than 47.7 µg/mL.
In the case of `O=C(NCC(=O)N1CCOCC1)c1ccc(Cl)c(Cl)c1` it was greater than 47.6 µg/mL.
In the case of `O=[N+]([O-])c1ccc(Cl)c(S(=O)(=O)/N=C(/Nc2cccnc2)c2ccccc2)c1` it was greater than 62.5 µg/mL.
In the case of `Cc1cc(C)c(S(=O)(=O)c2cc(F)ccc2C)c(=O)[nH]1` it was 13.3 µg/mL (≈ 45 µM).
For the compound `CCN(CC)c1ccc(NC(=O)Nc2ccccc2)cc1`, the kinetic solubility is 4.1 µg/mL (≈ 14.5 µM).
As for `COC(=O)C1CN(C(=O)COc2ccccc2C)c2ccccc2O1` (configuration not stated), the figure is 48.8 µg/mL (≈ 143 µM); as for `O=C(c1ccccc1)N1CCSc2sccc2C1=O`, 37.5 µg/mL (≈ 130 µM); as for `Cc1ccc(CNC(=O)C2CCC(=O)N2Cc2ccc(F)cc2)cc1` (configuration not stated), 50.2 µg/mL (≈ 147 µM).
In the case of `Cc1cc(C)c2c(N)c(C(=O)Nc3ccc(F)cc3)sc2n1` it was 1.1 µg/mL (≈ 3.49 µM); in that of `CC1NC(C)(C)Cc2c1ccc1ccccc21.Cl` (configuration not stated), 37.6 µg/mL; in that of `N/C(CSc1ncccc1C(F)(F)F)=N\O`, greater than 37.7 µg/mL.
Turning to `CSc1ncc(C(=O)Nc2cccc(C)c2C)c(C)n1`, the kinetic solubility is 17 µg/mL (≈ 59.2 µM).
As for `COc1ccc(C2NC(=O)c3ccccc3N2)cc1` (configuration not stated), the figure is 33.2 µg/mL (≈ 131 µM).
In the case of `Cc1cc(NC(=O)CSc2ncc(C(F)(F)F)cc2Cl)no1` it was 1.2 µg/mL (≈ 3.41 µM).
As for `O=C1c2ccc([N+](=O)[O-])cc2C(=O)N1Cc1cccnc1`, the figure is greater than 42.5 µg/mL; as for `CCS(=O)(=O)Nc1ccc2[nH]c(=O)[nH]c2c1`, greater than 36.2 µg/mL.
For the compound `COC(=O)c1ccc(C2NC(=O)CCC2[N+](=O)[O-])cc1` (configuration not stated), the kinetic solubility is greater than 41.7 µg/mL.
For `COc1ccccc1N1CCN(CC(O)c2ccccc2)CC1` (configuration not stated), the kinetic solubility stood at 37.6 µg/mL (≈ 120 µM).
Consider `COc1ccc(N(CCC#N)C(=O)/C(C#N)=C\c2cccs2)cc1`, for which the kinetic solubility is greater than 50.6 µg/mL.
`Fc1ccc(CN2CCC(Cc3ccccc3)CC2)cc1F` registered a kinetic solubility of 8 µg/mL (≈ 26.5 µM).
As for `CCn1c(NC(=O)C(C)C)c2ccccc2nc1=O`, the figure is greater than 38.9 µg/mL; as for `COc1ccc(C(=O)NCCNc2ccc([N+](=O)[O-])cc2)cc1`, 5 µg/mL (≈ 15.9 µM); as for `CCC(=O)N1CCCc2ccccc21`, 22.4 µg/mL (≈ 118 µM).
With `O=C(CN1CCN(Cc2ccc(F)cc2)CC1)NCc1ccccc1`, the kinetic solubility is greater than 51.2 µg/mL.
Compound `N#Cc1c(N2C(=O)c3ccc(C(=O)O)cc3C2=O)sc2c1CCCC2` yielded a solubility (kinetic) greater than 52.9 µg/mL.
In the case of `COc1cccc(NC(=O)C(=O)NCCCn2ccnc2)c1` it was 42.2 µg/mL (≈ 140 µM); in that of `O=S(=O)(Cc1ccco1)Cc1nc(-c2ccc(Cl)cc2)cs1`, 0.9 µg/mL (≈ 2.54 µM).
As for `COc1ccc(O)c(/C=C2/SC(=S)N(Cc3ccccc3)C2=O)c1`, the figure is less than 0.8 µg/mL; as for `COc1ccc(NC(=O)CN2CCc3ccccc3C2)c(OC)c1`, 34.1 µg/mL (≈ 104 µM); as for `CC1CCN(C(=O)CNC(=O)c2ccc(Br)o2)CC1`, greater than 49.4 µg/mL.
`CCCNC(=S)N1CCC(NC(=O)Nc2ccc(C)cc2)CC1` yielded a solubility (kinetic) of 4.9 µg/mL (≈ 14.6 µM).
Regarding `CCOC(=O)CSc1nc(C(C)(C)C)nc2ccccc12`, the solubility (kinetic) is 0.7 µg/mL (≈ 2.3 µM). This solubility kinetic is about 7-fold lower than that of the compound before.
In the case of `Cc1ccccc1NC(=O)CSc1ccncc1` it was 36 µg/mL (≈ 139 µM).
As for `O=C(NC(=O)N1CCCCC1)c1ccccc1`, the figure is 31.7 µg/mL (≈ 136 µM).
In the case of `N/C(=N\OC(=O)Cc1ccccc1[N+](=O)[O-])c1ccccn1` it was 42.3 µg/mL (≈ 141 µM).
Compound `Cc1sc2nc[nH]c(=O)c2c1-c1ccc(Cl)cc1` yielded a solubility (kinetic) of 1.8 µg/mL (≈ 6.5 µM).
As for `CC(CCc1ccccc1)NC(=O)c1ccc(Br)cc1` (configuration not stated), the figure is 1.1 µg/mL (≈ 3.31 µM); as for `O=C(c1ccccc1NS(=O)(=O)c1ccccc1)N1CCCCCC1`, greater than 53.8 µg/mL; as for `Cc1cccc(C)c1OCC(O)CN1CCCCC1.Cl` (configuration not stated), 43.4 µg/mL.
As for `O=C(/C=C/c1ccco1)N1CCc2ccccc21`, the figure is 31.4 µg/mL (≈ 131 µM); as for `O=C(NCCN1CCCCC1)c1cc(Cl)ccc1Cl`, 39.8 µg/mL (≈ 132 µM).
With `O=C(N/C(=C\c1ccco1)C(=O)N1CCCC1)c1ccccc1`, the kinetic solubility amounted to 41.6 µg/mL (≈ 134 µM). This solubility kinetic and that of the compound before are within 1.5-fold of each other.
In the case of `Cc1ccccc1OS(=O)(=O)c1cn(C)c(=O)n(C)c1=O`, the solubility (kinetic) is greater than 46.5 µg/mL.
In the case of `CCC(CC)NC(=O)Cn1c(C(C)NC(C)=O)nc2ccccc21` (configuration not stated) it was 41.3 µg/mL (≈ 125 µM); in that of `O=[N+]([O-])c1ccc(OCc2n[nH]c(=S)n2-c2ccccc2)cc1`, greater than 49.3 µg/mL.
Regarding `CCOC(=O)c1c(C)n(Cc2ccc(F)cc2)c2ccc(O)cc12`, the kinetic solubility was less than 0.7 µg/mL.
As for `CN(C(=O)CN1CCN(c2ccc([N+](=O)[O-])cn2)CC1)c1ccccc1`, the figure is greater than 53.3 µg/mL; as for `Cc1cccc(N2C(=O)CN(Cc3ccccc3)C2=S)c1`, 10 µg/mL (≈ 33.7 µM); as for `CCN(CC)C(=O)N[C@H]1C[C@@H]2c3cccc4[nH]cc(c34)C[C@H]2N(C)C1`, 14.1 µg/mL (≈ 41.4 µM).
As for `O=[N+]([O-])c1cc([N+](=O)[O-])c2cc(-c3cccnc3)[nH]c2c1`, the figure is less than 0.2 µg/mL.
`O=C(COC(=O)COc1ccccc1)NC1CCCC1`: the solubility (kinetic) is greater than 41.6 µg/mL.
As for `O=C(Cn1cnc2cc([N+](=O)[O-])ccc2c1=O)N1CCN(S(=O)(=O)c2ccccc2)CC1`, the figure is 11 µg/mL (≈ 24 µM).
